According to PMC5259778, “Candidate pheromone receptors of codling moth Cydia pomonella respond to pheromones and kairomones” (Scientific Reports, 2017):

Test system: CpomOrco + OR1
Assay: Whole-cell patch-clamp recording of HEK293T cells expressing CpomOrco + OR1
Assay type: cell-based, Cydia pomonella
Details: VUAA3 200 μM, n = 37
Procedure: To test transient expression of CpomORs for calcium imaging or patch-clamp recording experiments, 35-mm petri dishes containing semi-confluent HEK293T cells were transiently transfected. To transfect cells with CpomOrco, we used 1.0 μg of pcDNA5/TO/CpomOrco DNA. In order to promote expression of the OR[51], we used double aliquots for pcDNA5/TO/CpomOR DNAs (2.0 μg), combined with 1.0 μg of pcDNA5/TO/CpomOrco for co-transfections (CpomOrco + ORs). […] In patch-clamp recordings, 1.0 μg of a separate plasmid DNA (pXOOM, Clontech) carrying the coding sequence for a green fluorescent protein (GFP) was used to report expression. In order to report candidate OR-expressing cells, expression of both fluorescent reporter genes was under the regulation of the same promoter for CpomOR genes (CMV). Transfection DNAs were dissolved in 100 μL sterile DMEM, mixed with 3.0 μL Calfectin (SignaGen, Rockville, MD, USA) following the recommended protocol. […] The currents were measured with a 200B patch-clamp amplifier (Molecular Devices) and a digital interface (Digidata 1320 A, Molecular Devices), low pass filtered at 5.0 kHz, sampled at 1-2 kHz. […] The OR channel current noise was recorded using outside-out patches excised from HEK293T cells and evoked by stimulation with 250 μM VUAA3. […]

CCn1c(SCC(=O)Nc2ccc(C(C)C)cc2)nnc1-c1ccncc1 [VUAA3, acetamide,2-[[4-ethyl-5-(4-pyridinyl)-4H-1,2,4-triazol-3-yl]thio]-N-[4-(1-methylethyl)phenyl]-]
inward current amplitude, variation: −49 to −1165 pA | inward current mean amplitude: −431 ± 54 pA
